# Measurements published in patent publication US20080031866A1, “METHOD FOR MODULATING THE PHARMACOKINETICS AND METABOLISM OF A THERAPEUTIC AGENT” (priority 2006, published 2008).
# Experiments:
# [1] = Oral gavage pharmacokinetics, jugular and portal vein sampling, first pass metabolism; assay type: in vivo, rat; conditions: for AUC: po, 75 mg/kg; for AUC / concentration at 0 h / concentration at 0.08 h / concentration at 0.25 h / concentration at 0.33 h / concentration at 0.5 h / concentration at 0.67 h / concentration at 1 h / concentration at 1.25 h / concentration at 1.5 h / concentration at 2 h / concentration at 3 h / concentration at 4 h / concentration at 6 h / concentration at 12 h / concentration at 24 h / Cmax: rats N=4; for Cmax: read-out: Cmax average ± standard deviation
# Experimental: (§1) Two separate IV studies were carried out using two separate lots of animals. IV-A was run on the same lot of animals as the oral gavage study and IV-B was run on the same lot of animals as the intraduodenal and intra-colonic studies.
# For the oral gavage dosing, Compound 1 was prepared in neat PEG-400. For the intraduodenal and intracolonic dosing solutions, Compound 1 was added to neat Tween 80, the mixture was sonicated for thirty minutes at 45° C. until Compound 1 was completely dissolved and then deionized (DI) water was added to form a solution consisting of 20% Tween 80 and 80% DI water by weight.
# (§2) For the IV and oral gavage dosing (sampling at jugular and portal vein), young adult male Sprague Dawley rats weighing 250-400 g were purchased from Hilltop Lab Animals Inc. All rat experiments were conducted under approved animal protocols. The rats for the oral gavage dosing were catheterized at Hilltop Lab Animals Inc, had two chronic catheters for sampling: jugular and portal, were housed in cages of Culex™ Automated Blood Sampler (ABS) and blood samples were collected simultaneously via both cannula and were controlled by the Culex™ ABS control software.
# (§3) A quantitative method for determining the amount of (6,7-dimethoxy-2,4-dihydro-indeno[1,2-c]pyrazol-3-yl)-(3-fluoro-phenyl)-amine Compound 1 and its major metabolites, glucuronide A (Cpd 1-GluA) and glucuronide B (Cpd 1-GluB) (see Scheme A) in rat plasma was developed using phenacetin as an internal standard. [drawing 1]
# (§4) The two glucuronide conjugates were prepared and purified to permit accurate quantification of the levels of intact parent Compound 1 versus Cpd 1-GluA and Cpd 1-GluB. Each standard curve for Compound 1, Cpd 1-GluA, and Cpd 1-GluB generated from rat plasma included ten concentration levels. […] The quantitative procedure for each sample included: sample preparation, HPLC separation and mass spectrometry detection.
# (§5) The rat plasma was prepared using protein precipitation techniques. Reference standards and quality control samples in rat plasma for Compound 1 were transferred to a 96 deep-well plate. The precipitation solution contained 100 ng/ml of internal standard in acetonitrile. 300 μl of precipitation solution were added to 100 μl of each standard, quality control and plasma sample. Samples were vortexed for 10 mins, then centrifuged at 4500 RPM for 10 mins. 10 μl of each sample were injected for LC/MS/MS analysis.
# (§6) The HPLC column chosen for the bioanalysis was purchased from Thermo Electron (Hypersil BetaBasic C18, 5 cm×2.1 mm). The eluting solvents were composed of Solvent A: 0.1% formic acid in H2O and Solvent B: 0.1% formic acid in acetonitrile. A step gradient was used and flow rate was 300 μl/min. The total run time was 3.2 mins. Solvent B was increased from 35% at 0 min to 75% at 2.1 mins and decreased back to 35% at 2.2 mins. The retention times for Compound 1, phenacetin, Cpd 1-GluA and Cpd 1-GluB were 1.1 min, 0.9 min, 1.3 min, and 1.6 min, respectively.
# API3000 with a Turbo Ionspray interface from Applied Biosystems was used for the detection of Compound 1, the internal standard and major metabolites. Electrospray ionization was performed in the positive ion mode heated nebulizer with a temperature of 300° C. LC/MS/MS chromatograms were acquired in MRM (multiple reaction mode). The MRM transitions for Compound 1, the internal standard, Cpd 1-GluA and Cpd 1-GluB were from 326.3 to 190.6, 181.1 to 110.3, 502.2 to 368.3 and 502.2 to 326.4, respectively. […]
# [2] = IV pharmacokinetics of Compound 1 and its glucuronides in rats; assay type: in vivo, rat; conditions: Sprague Dawley, rat, plasma, Compound 1 2 mg/kg IV
# Experimental: as §1
# For the IV dosing solutions (IV), Compound 1 was prepared by addition to DI water containing 20% hydroxypropyl β-cyclodextran by weight.
# as §2, §3, §4, §5, §6
# API3000 with a Turbo Ionspray interface from Applied Biosystems was used for the detection of Compound 1, the internal standard and major metabolites. Electrospray ionization was performed in the positive ion mode heated nebulizer with a temperature of 300° C. LC/MS/MS chromatograms were acquired in MRM (multiple reaction mode). The MRM transitions for Compound 1, the internal standard, Cpd 1-GluA and Cpd 1-GluB were from 326.3 to 190.6, 181.1 to 110.3, 502.2 to 368.3 and 502.2 to 326.4, respectively.
# Pharmacokinetic analysis of the plasma concentration data was performed to determine the maximum plasma concentration (Cmax) for the oral dose, and the concentration at zero time (C0; Compound 1 only) by the extrapolation of drug concentrations back to the time of i.v. dosing, the time to maximum plasma concentration (Tmax) following the oral dose, area under the plasma concentration vs. time curve (AUC), terminal half-life (t1/2), plasma clearance (CL/F; Compound 1 only), and volume of distribution at steady state (Vdss; Compound 1 only) for the i.v. dose, using the WinNonlin (Version 3.1, Pharsight, Palo Alto, Calif.) validated computer program.
# [3] = male, Sprague Dawley, rat, plasma (jugular vein sample), Compound 1 75 mg/kg oral gavage, jugular sample
# [4] = male, Sprague Dawley, rat, plasma (portal vein sample), Compound 1 75 mg/kg oral gavage, portal sample
# [5] = male, Sprague Dawley, rat, portal vein plasma, Compound 1 75 mg/kg oral gavage, portal sample
smiles,measurement,setting,value
COc1cc2c(cc1OC)-c1n[nH]c(N(c3cccc(F)c3)[C@H]3O[C@@H](C(=O)O)[C@H](O)[C@@H](O)[C@@H]3O)c1C2 [Cpd 1-GluA],Ratio of metabolite to Compound 1,"[1]; jugular vein, oral gavage",78
same,AUC,"[1]; male, Sprague Dawley, rat, plasma (jugular vein sample), Compound 1 75 mg/kg oral gavage, jugular sample, read-out: AUC average ± standard deviation 0 to 24 hours",117 µg·h/mL
same,AUC,"[1]; male, Sprague Dawley, rat, plasma (jugular vein sample), Compound 1 75 mg/kg oral gavage, jugular sample, read-out: AUC average ± standard deviation 0 to infinite hours",169 µg·h/mL
same,concentration at 0 h,[1]; [3],2.2 ng/mL
same,concentration at 0.08 h,[1]; [3],2570 ng/mL
same,concentration at 0.25 h,[1]; [3],12400 ng/mL
same,concentration at 0.33 h,[1]; [3],16100 ng/mL
same,concentration at 0.5 h,[1]; [3],15700 ng/mL
same,concentration at 0.67 h,[1]; [3],14700 ng/mL
same,concentration at 1 h,[1]; [3],14300 ng/mL
same,concentration at 1.25 h,[1]; [3],11700 ng/mL
same,concentration at 1.5 h,[1]; [3],11700 ng/mL
same,concentration at 2 h,[1]; [3],11100 ng/mL
same,concentration at 3 h,[1]; [3],6480 ng/mL
same,concentration at 4 h,[1]; [3],3750 ng/mL
same,concentration at 6 h,[1]; [3],4290 ng/mL
same,concentration at 12 h,[1]; [3],5170 ng/mL
same,concentration at 24 h,[1]; [3],2470 ng/mL
same,Cmax,[1]; [3],17600 ng/mL
same,concentration at 0.67 h,[1]; [4],26000 ng/mL
same,concentration at 1 h,[1]; [4],11700 ng/mL
same,concentration at 1.25 h,[1]; [4],15100 ng/mL
same,concentration at 1.5 h,[1]; [4],12200 ng/mL
same,concentration at 2 h,[1]; [4],14700 ng/mL
same,concentration at 3 h,[1]; [4],10700 ng/mL
same,concentration at 4 h,[1]; [4],7500 ng/mL
same,concentration at 6 h,[1]; [4],11600 ng/mL
same,concentration at 12 h,[1]; [4],8000 ng/mL
same,Tmax,"[1]; male, Sprague Dawley, rat, plasma, rats, Compound 1 75 mg/kg oral gavage",54 min
same,AUC,"[1]; male, Sprague Dawley, rat, portal vein plasma, Compound 1 75 mg/kg oral gavage, portal sample, read-out: AUC average ± standard deviation 0 to 24 hours",190 µg·h/mL
same,AUC,"[1]; male, Sprague Dawley, rat, portal vein plasma, Compound 1 75 mg/kg oral gavage, portal sample, read-out: AUC average ± standard deviation 0 to infinite hours",271 µg·h/mL
same,concentration at 0 h,[1]; [5],1.3 ng/mL
same,concentration at 0.08 h,[1]; [5],9460 ng/mL
same,concentration at 0.25 h,[1]; [5],18900 ng/mL
same,concentration at 0.33 h,[1]; [5],22400 ng/mL
same,concentration at 0.5 h,[1]; [5],17400 ng/mL
same,concentration at 24 h,[1]; [5],5070 ng/mL
same,Cmax,[1]; [5],29200 ng/mL
same,Systemic exposure of Glu A relative to Glu B,[1]; oral gavage dosing,~66 times
same,Mean ratio of metabolite to Compound 1,"[1]; portal system, oral gavage",20
same,AUC,"[2]; male rats N=4, read-out: AUC average ± standard deviation",8.21 µg·h/mL
same,Cmax,"[2]; male rats N=4, read-out: Cmax average ± standard deviation",2970 ng/mL
same,concentration at 0 h,"[2]; male rats N=4, retro orbital sinus, 0 hrs",0 ng/mL
same,concentration at 0.08 h,"[2]; male rats N=4, retro orbital sinus, 0.08 hrs",2440 ng/mL
same,concentration at 0.33 h,"[2]; male rats N=4, retro orbital sinus, 0.33 hrs",2970 ng/mL
same,concentration at 1 h,"[2]; male rats N=4, retro orbital sinus, 1 hr",1670 ng/mL
same,concentration at 2 h,"[2]; male rats N=4, retro orbital sinus, 2 hrs",492 ng/mL
same,concentration at 4 h,"[2]; male rats N=4, retro orbital sinus, 4 hrs",68.6 ng/mL
same,concentration at 8 h,"[2]; male rats N=4, retro orbital sinus, 8 hrs",369 ng/mL
same,concentration at 24 h,"[2]; male rats N=4, retro orbital sinus, 24 hrs",18.6 ng/mL
same,Tmax,[2]; male rats,18 min
